Measured values published in PubChem BioAssay AID330 (DTP/NCI, 2004).
Several values for one entry are separate records, joined by “and”; a condition that tells them apart may be missing. Identical values can stand only once. Inconclusive results and toxic doses are left out. How the source made its calls: active means survival T/C of 150% or more; inactive means T/C below 125% in these data.

Tested on: P388 leukemia ip, CD2F1 mice, survival T/C
Assay: NCI In Vivo Anticancer Drug Screen. Data for tumor model P388 Leukemia (intraperitoneal) in CD2F1 (CDF1) mice
Settings: endpoint: median survival time, higher = longer survival
How it was run: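 Mice carrying the transplanted tumor received test compound or vehicle. Survival was recorded in each group, and the value is the treated-group measurement divided by that of the vehicle-treated control group.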

[1] = dose: 25.0 mg/kg/injection, schedule: Q01DX005 (ip), vehicle: saline with Tween-80
[2] = dose: 50.0 mg/kg/injection, schedule: Q01DX005 (ip), vehicle: saline with Tween-80
[3] = dose: 100.0 mg/kg/injection, schedule: Q01DX005 (ip), vehicle: saline with Tween-80
[4] = dose: 60.0 mg/kg/injection, schedule: Q01DX005 (ip), vehicle: saline with Tween-80
[5] = dose: 50.0 mg/kg/injection, schedule: Q01DX009 (ip), vehicle: saline with Tween-80
[6] = dose: 100.0 mg/kg/injection, schedule: Q01DX009 (ip), vehicle: saline with Tween-80
[7] = dose: 200.0 mg/kg/injection, schedule: Q01DX009 (ip), vehicle: saline with Tween-80
[8] = dose: 200.0 mg/kg/injection, schedule: Q01DX005 (ip), vehicle: saline with Tween-80
[9] = dose: 50.0 mg/kg/injection, schedule: Q01DX005 (ip), vehicle: Klucel (hydroxypropylcellulose) (HPC)
[10] = dose: 100.0 mg/kg/injection, schedule: Q01DX005 (ip), vehicle: Klucel (hydroxypropylcellulose) (HPC)
[11] = dose: 50.0 mg/kg/injection, schedule: Q01DX009 (ip), vehicle: saline
[12] = dose: 100.0 mg/kg/injection, schedule: Q01DX009 (ip), vehicle: saline
[13] = dose: 200.0 mg/kg/injection, schedule: Q01DX009 (ip), vehicle: saline
[14] = dose: 12.5 mg/kg/injection, schedule: Q01DX005 (ip), vehicle: saline with Tween-80
[15] = dose: 50.0 mg/kg/injection, schedule: Q01DX009 (ip), vehicle: Klucel (hydroxypropylcellulose) (HPC)
[16] = dose: 100.0 mg/kg/injection, schedule: Q01DX009 (ip), vehicle: Klucel (hydroxypropylcellulose) (HPC)

Measured: T/C

O=C(/C(Br)=C/c1ccccc1)/C(Br)=C/c1ccccc1
inactive: dose: 12.5 mg/kg/injection, schedule: Q01DX001 (ip), vehicle: saline with Tween-80 100 % of control | dose: 25.0 mg/kg/injection, schedule: Q01DX001 (ip), vehicle: saline with Tween-80 100 % of control | dose: 50.0 mg/kg/injection, schedule: Q01DX001 (ip), vehicle: saline with Tween-80 88 % of control

N#Cc1nccnc1Cl
inactive: dose: 25.0 mg/kg/injection, schedule: Q01DX009 (ip), vehicle: other 95 % of control | dose: 25.0 mg/kg/injection, schedule: Q04DX003 (ip), vehicle: other 100 % of control | dose: 50.0 mg/kg/injection, schedule: Q01DX009 (ip), vehicle: other 100 % of control | dose: 50.0 mg/kg/injection, schedule: Q04DX003 (ip), vehicle: other 100 % of control | dose: 100.0 mg/kg/injection, schedule: Q01DX009 (ip), vehicle: other 100 % of control | dose: 100.0 mg/kg/injection, schedule: Q04DX003 (ip), vehicle: other 100 % of control

N=c1nc(N)nc2n1N=C(c1ccc(Cl)cc1)CS2
inactive: [1] 102 % of control | [2] 92 % of control | [3] 90 % of control

Cc1nc(C)n2cnnc2c1C
inactive: dose: 100.0 mg/kg/injection, schedule: Q04DX003 (ip), vehicle: saline 96 % of control | dose: 200.0 mg/kg/injection, schedule: Q04DX003 (ip), vehicle: saline 95 % of control

COC(=O)c1nnn(-c2cc(Cl)ccc2Cl)c1N
inactive: [4] 91 % of control

Cc1ccc(NC(=O)Oc2ccc(OCc3ccccc3)cc2)c([N+](=O)[O-])c1
inactive: [5] 99 % of control | [6] 97 % of control | [7] 95 % of control

O=C(Nc1ccccc1)OC(CS(=O)(=O)c1ccccc1)C(Cl)(Cl)Cl (stereo not given)
inactive: [2] 92 % of control | [3] 96 % of control | [8] 95 % of control

CC1(C)CC(=O)C2=C(C1)NC1=C(C(=O)CC(C)(C)C1)C2c1cccs1
inactive: [2] 98 % of control | [3] 98 % of control | [8] 93 % of control

Cc1cccc(C(=O)C(CN(C)C)CN(C)C)c1
inactive: dose: 12.5 mg/kg/injection, schedule: Q01DX005 (ip), vehicle: saline 112 % of control | dose: 25.0 mg/kg/injection, schedule: Q01DX005 (ip), vehicle: saline 114 % of control

O=C1/C(=C/c2ccc3c(c2)OCO3)SC(=S)N1c1ccc(Cl)c(Cl)c1
inactive: [9] 103 % of control | [10] 100 % of control

CN(C)CCNc1cccc2oc3ccc(O)cc3c(=O)c12
inactive: dose: 25.0 mg/kg/injection, schedule: Q01DX005 (ip), vehicle: Klucel (hydroxypropylcellulose) (HPC) 101 % of control | [9] 107 % of control | [10] 110 % of control | dose: 200.0 mg/kg/injection, schedule: Q01DX005 (ip), vehicle: Klucel (hydroxypropylcellulose) (HPC) 114 % of control

Nc1ccccc1CN1C(=O)CCC1=O
inactive: [11] 105 % of control | [12] 101 % of control | [13] 99 % of control

CCN(CC)c1ccc(C(NCCC(C)C)C(Cl)(Cl)Cl)cc1 (stereo not given)
inactive: dose: 50.0 mg/kg/injection, schedule: Q01DX005 (ip), vehicle: saline 97 % of control | dose: 100.0 mg/kg/injection, schedule: Q01DX005 (ip), vehicle: saline 101 % of control | dose: 200.0 mg/kg/injection, schedule: Q01DX005 (ip), vehicle: saline 101 % of control

CC1=CC(O/C=C2\C(=O)OC3C=CCC23)OC1=O (stereo not given)
inactive: dose: 100.0 mg/kg/injection, schedule: Q04DX002 (ip), vehicle: suspension in saline 99 % of control | dose: 200.0 mg/kg/injection, schedule: Q04DX002 (ip), vehicle: suspension in saline 98 % of control | dose: 400.0 mg/kg/injection, schedule: Q04DX002 (ip), vehicle: suspension in saline 111 % of control

O=C1C=CC(=Nc2cc3c(cc2Br)-c2ccccc2C3=O)O1
inactive: dose: 3.12 mg/kg/injection, schedule: Q01DX005 (ip), vehicle: saline with Tween-80 100 % of control and 98 % of control | dose: 6.25 mg/kg/injection, schedule: Q01DX005 (ip), vehicle: saline with Tween-80 100 % of control and 104 % of control | [14] 104 % of control and 105 % of control | [1] 104 % of control and 106 % of control and 117 % of control | [2] 103 % of control and 105 % of control | [3] 104 % of control

Clc1ccc(OCSCOc2ccc(Cl)cc2Cl)c(Cl)c1
inactive: [15] 106 % of control | [16] 99 % of control | dose: 200.0 mg/kg/injection, schedule: Q01DX009 (ip), vehicle: Klucel (hydroxypropylcellulose) (HPC) 101 % of control

CCCCCCCCCCCCCCCCC[N+]1(CC)CCCCC1
inactive: dose: 0.39 mg/kg/injection, schedule: Q01DX009 (ip), vehicle: saline 111 % of control | dose: 0.78 mg/kg/injection, schedule: Q01DX009 (ip), vehicle: saline 116 % of control

COc1ccc(C(C)c2cc3c(cc2OCCO)OCO3)cc1 (stereo not given)
inactive: [2] 105 % of control | [3] 102 % of control | [8] 105 % of control

COc1cc2c3c(cccc3c1)C(=O)N(CCN(C)C)C2=O
inactive: dose: 9.5 mg/kg/injection, schedule: Q01DX009 (ip), vehicle: saline with Tween-80 110 % of control

O=P(O)(O)SP(=O)(O)O.[Co]
inactive: [15] 105 % of control | [16] 94 % of control

CC1=CC2ON=C(c3c(C)cc(C)cc3C)N2N(C(=O)c2ccccc2)C=C1 (stereo not given)
inactive: [11] 102 % of control | [12] 93 % of control | [13] 93 % of control

C=CCNC(=O)SCC
inactive: [2] 107 % of control | [3] 116 % of control

COC(=O)C12Oc3ccc(-c4ccc5c(c4O)C(O)=C4C(=O)CC(C)C(O)C4(C(=O)OC)O5)c(O)c3C(O)=C1C(=O)CC(C)C2O (stereo not given)
inactive: dose: 0.39 mg/kg/injection, schedule: Q01DX009 (ip), vehicle: saline with Tween-80 100 % of control | dose: 0.78 mg/kg/injection, schedule: Q01DX009 (ip), vehicle: saline with Tween-80 104 % of control | dose: 1.56 mg/kg/injection, schedule: Q01DX009 (ip), vehicle: saline with Tween-80 106 % of control | dose: 2.5 mg/kg/injection, schedule: Q01DX009 (ip), vehicle: saline with Tween-80 96 % of control | dose: 3.13 mg/kg/injection, schedule: Q01DX009 (ip), vehicle: saline with Tween-80 112 % of control | dose: 5.0 mg/kg/injection, schedule: Q01DX009 (ip), vehicle: saline with Tween-80 100 % of control | dose: 6.25 mg/kg/injection, schedule: Q04DX003 (ip), vehicle: saline with Tween-80 104 % of control | dose: 8.33 mg/kg/injection, schedule: Q04DX003 (ip), vehicle: saline with Tween-80 104 % of control | dose: 10.0 mg/kg/injection, schedule: Q01DX009 (ip), vehicle: saline with Tween-80 105 % of control | dose: 12.5 mg/kg/injection, schedule: Q04DX003 (ip), vehicle: saline with Tween-80 109 % of control | dose: 18.7 mg/kg/injection, schedule: Q04DX003 (ip), vehicle: saline with Tween-80 113 % of control | dose: 25.0 mg/kg/injection, schedule: Q04DX003 (ip), vehicle: saline with Tween-80 118 % of control

COc1nc2[nH]ccc2c(=O)n1C
inactive: [4] 101 % of control | dose: 120.0 mg/kg/injection, schedule: Q01DX005 (ip), vehicle: saline with Tween-80 92 % of control | dose: 240.0 mg/kg/injection, schedule: Q01DX005 (ip), vehicle: saline with Tween-80 89 % of control

O=C(NC(=O)c1cccc2ccccc12)NC(=S)c1ccccc1
inactive: dose: 100.0 mg/kg/injection, schedule: Q01DX001 (ip), vehicle: saline 92 % of control | dose: 200.0 mg/kg/injection, schedule: Q01DX001 (ip), vehicle: saline 88 % of control | dose: 400.0 mg/kg/injection, schedule: Q01DX001 (ip), vehicle: saline 86 % of control

COc1cc(NCCCCCNCC(C)(C)C)c2ncccc2c1
inactive: [14] 109 % of control | [1] 107 % of control | [2] 91 % of control and 93 % of control

CCN(c1ccccc1)c1nsc(Cl)n1
inactive: [5] 101 % of control | [6] 104 % of control | [7] 104 % of control

COc1cc(C2c3cc4c(cc3OC3(O)C=C(C)OC(=O)C23)OCO4)cc(OC)c1OC (stereo not given)
inactive: dose: 60.0 mg/kg/injection, schedule: Q01DX005 (ip), vehicle: Klucel (hydroxypropylcellulose) (HPC) 94 % of control | dose: 120.0 mg/kg/injection, schedule: Q01DX005 (ip), vehicle: Klucel (hydroxypropylcellulose) (HPC) 94 % of control | dose: 240.0 mg/kg/injection, schedule: Q01DX005 (ip), vehicle: Klucel (hydroxypropylcellulose) (HPC) 110 % of control
